Results as given in patent publication US9822103B2, “Inhibitors of lysine methyl transferase” (priority 2013, dated 2017).

biological target: recombinant EZH2-641F complex (EZH2 Y641F/EED/SUZ12/RbAp48/AEBP2) (Homo sapiens (Human), UniProt Q15910, Y641F); experiment: EZH2 Histone Methyl Transferase Assay (scintillation proximity assay); assay type: biochemical; settings: 350 nM histone peptide substrate, 500 nM 3H-SAM, 3 hours room temperature
Method: EZH2 Histone Methyl Transferase Assay
The effectiveness of compounds of the present invention as inhibitors of histone methyl transferases can be readily tested by assays known to those skilled in the art. For example, in vitro histone methyl transferase assays may be conducted with a relevant purified histone methyl transferase and an appropriate synthetic substrate to determine the inhibitory activity of the compounds. Assays for inhibition of EZH2 by the instant compounds were performed in 384-well plates with reaction mixtures containing 350 nM of histone peptide substrate (ATKAAR-K(Me2)-SAPATGGVKKPHRYRPG-GK(Biotin), 500 nM S-[methyl-^3H]adenosyl-L-methionine (55-85 Ci/mmol), 50 mM Tris-HCl (pH 9.0), 50 mM NaCl, 1 mM dithiothreitol, Tween-20 at 0.01% and fatty-acid free bovine serum albumin at 0.01%, and recombinant EZH2-641F complex (EZH2 Y641F/EED/SUZ12/RbAp48/AEBP2) at 5 nM (>98% purity, BPS Bioscience) or 15 nM (50% purity, in-house). Reaction mixtures were incubated at room temperature for 3 hours, and the reactions were terminated by 0.005% poly-L-lysine solution in 20 mM Tris-HCl (pH 7.5) and 150 mM NaCl. Reaction products were captured by binding to strepavidin-conjugated imaging beads. Incorporation of radioactive methyl group into the histone peptide substrate was determined in Leadseeker (GE Healthcare) by means of scintillation proximity assay. Dose response curves were generated to determine the concentration required to inhibit 50% of methyl transferase activity (EC50). Compounds were dissolved at 10 mM in dimethylsulfoxide (DMSO) and evaluated at eleven concentrations. EC50 values were derived by non-linear regression analysis.

Chain of recombinant EZH2-641F complex (EZH2 Y641F/EED/SUZ12/RbAp48/AEBP2) (Q15910 whole entry Y641F): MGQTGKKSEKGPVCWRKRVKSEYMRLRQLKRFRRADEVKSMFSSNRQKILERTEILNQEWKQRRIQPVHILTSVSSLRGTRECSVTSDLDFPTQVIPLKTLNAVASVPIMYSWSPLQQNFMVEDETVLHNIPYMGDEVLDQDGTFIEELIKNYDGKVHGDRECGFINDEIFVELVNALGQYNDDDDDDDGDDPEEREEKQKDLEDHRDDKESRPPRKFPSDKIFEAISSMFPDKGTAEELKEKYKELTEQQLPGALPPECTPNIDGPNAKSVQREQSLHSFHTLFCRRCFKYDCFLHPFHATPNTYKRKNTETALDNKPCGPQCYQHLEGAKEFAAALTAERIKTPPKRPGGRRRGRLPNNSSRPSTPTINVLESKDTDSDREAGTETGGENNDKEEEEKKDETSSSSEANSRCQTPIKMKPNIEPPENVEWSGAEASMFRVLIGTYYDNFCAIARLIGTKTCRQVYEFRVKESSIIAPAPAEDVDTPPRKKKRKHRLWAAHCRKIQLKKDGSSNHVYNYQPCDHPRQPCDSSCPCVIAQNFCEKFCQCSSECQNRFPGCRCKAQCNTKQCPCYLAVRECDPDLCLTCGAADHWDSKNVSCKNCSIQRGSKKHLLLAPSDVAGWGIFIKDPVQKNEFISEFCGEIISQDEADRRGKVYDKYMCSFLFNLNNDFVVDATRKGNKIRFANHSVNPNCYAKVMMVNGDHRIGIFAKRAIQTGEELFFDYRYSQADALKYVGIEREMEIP
Chain of recombinant EZH2-641F complex (EZH2 Y641F/EED/SUZ12/RbAp48/AEBP2) (O75530 whole entry partner): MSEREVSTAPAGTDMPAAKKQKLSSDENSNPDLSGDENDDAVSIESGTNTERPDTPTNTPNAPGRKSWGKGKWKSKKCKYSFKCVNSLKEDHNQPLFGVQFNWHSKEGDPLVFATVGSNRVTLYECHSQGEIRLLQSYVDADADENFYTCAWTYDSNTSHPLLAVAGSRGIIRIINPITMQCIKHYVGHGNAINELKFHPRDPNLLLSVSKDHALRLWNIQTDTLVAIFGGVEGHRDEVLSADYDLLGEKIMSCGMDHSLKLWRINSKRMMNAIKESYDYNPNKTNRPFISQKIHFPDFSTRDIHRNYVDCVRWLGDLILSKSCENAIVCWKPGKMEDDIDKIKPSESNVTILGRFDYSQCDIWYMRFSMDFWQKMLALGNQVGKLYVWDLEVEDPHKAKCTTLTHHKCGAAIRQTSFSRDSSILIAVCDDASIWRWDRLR
Chain of recombinant EZH2-641F complex (EZH2 Y641F/EED/SUZ12/RbAp48/AEBP2) (Q15022 whole entry partner): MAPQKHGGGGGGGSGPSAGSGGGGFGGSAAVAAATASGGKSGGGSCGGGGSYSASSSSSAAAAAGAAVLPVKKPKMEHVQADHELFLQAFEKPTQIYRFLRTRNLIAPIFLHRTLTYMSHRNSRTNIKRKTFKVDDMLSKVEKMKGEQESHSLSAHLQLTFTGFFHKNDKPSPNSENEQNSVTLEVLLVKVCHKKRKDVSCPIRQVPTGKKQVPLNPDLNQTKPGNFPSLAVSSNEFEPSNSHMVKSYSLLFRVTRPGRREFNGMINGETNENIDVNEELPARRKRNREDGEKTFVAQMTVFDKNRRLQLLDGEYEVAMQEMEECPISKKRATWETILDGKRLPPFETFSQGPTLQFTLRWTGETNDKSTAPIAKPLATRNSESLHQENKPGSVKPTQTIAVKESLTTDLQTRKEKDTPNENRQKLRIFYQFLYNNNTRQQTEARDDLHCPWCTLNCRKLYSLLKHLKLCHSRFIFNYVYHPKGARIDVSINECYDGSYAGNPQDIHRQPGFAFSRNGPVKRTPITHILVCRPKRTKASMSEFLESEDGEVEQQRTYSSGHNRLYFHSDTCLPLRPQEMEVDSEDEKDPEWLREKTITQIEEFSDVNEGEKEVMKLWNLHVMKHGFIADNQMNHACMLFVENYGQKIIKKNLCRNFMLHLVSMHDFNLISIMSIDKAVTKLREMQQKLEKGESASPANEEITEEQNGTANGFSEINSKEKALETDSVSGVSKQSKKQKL
Chain of recombinant EZH2-641F complex (EZH2 Y641F/EED/SUZ12/RbAp48/AEBP2) (Q09028 whole entry partner): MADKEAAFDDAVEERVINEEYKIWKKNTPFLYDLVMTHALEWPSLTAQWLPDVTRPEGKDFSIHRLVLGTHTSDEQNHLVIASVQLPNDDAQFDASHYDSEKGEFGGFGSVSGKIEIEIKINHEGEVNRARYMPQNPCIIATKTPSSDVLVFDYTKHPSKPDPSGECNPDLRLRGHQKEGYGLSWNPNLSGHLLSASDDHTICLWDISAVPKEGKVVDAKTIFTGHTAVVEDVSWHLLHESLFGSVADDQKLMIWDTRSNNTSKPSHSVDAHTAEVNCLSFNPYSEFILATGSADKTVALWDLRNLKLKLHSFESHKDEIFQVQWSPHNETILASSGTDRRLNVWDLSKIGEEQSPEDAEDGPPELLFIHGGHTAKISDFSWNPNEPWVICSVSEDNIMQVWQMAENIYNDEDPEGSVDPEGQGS
Chain of recombinant EZH2-641F complex (EZH2 Y641F/EED/SUZ12/RbAp48/AEBP2) (Q6ZN18 whole entry partner): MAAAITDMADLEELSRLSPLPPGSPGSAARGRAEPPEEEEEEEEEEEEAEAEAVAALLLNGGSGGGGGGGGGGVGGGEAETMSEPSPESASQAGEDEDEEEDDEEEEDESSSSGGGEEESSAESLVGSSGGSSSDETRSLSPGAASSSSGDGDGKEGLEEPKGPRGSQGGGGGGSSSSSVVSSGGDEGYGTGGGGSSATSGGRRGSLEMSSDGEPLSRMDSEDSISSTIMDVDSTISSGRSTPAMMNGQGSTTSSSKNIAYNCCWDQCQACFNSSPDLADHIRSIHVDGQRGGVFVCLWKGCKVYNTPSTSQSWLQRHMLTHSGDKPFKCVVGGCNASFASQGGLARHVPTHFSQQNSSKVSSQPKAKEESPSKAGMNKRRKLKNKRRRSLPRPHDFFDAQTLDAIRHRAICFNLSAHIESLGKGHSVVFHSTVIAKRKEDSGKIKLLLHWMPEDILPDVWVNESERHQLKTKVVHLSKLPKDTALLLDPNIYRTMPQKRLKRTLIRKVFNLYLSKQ

Row | SMILES | IC50 [nM]
1 | Cc1cc(C)c(CNC(=O)c2cc(Br)c3c(c2)C2(CCCC2)CO3)c(=O)[nH]1 [Example 75, 7-Bromo-N-((4,6-dimethyl-2-oxo-1,2-dihydropyridin-3-yl)methyl)-2H-spiro[benzofuran-3,1′-cyclopentane]-5-carboxamide] | > 1000
2 | Cc1cc(C)c(CNC(=O)c2cc(Br)c3c(c2C)CC(C)(C)O3)c(=O)[nH]1 [Example 7, 7-Bromo-N-((4,6-dimethyl-2-oxo-1,2-dihydropyridin-3-yl)methyl)-2,2,4-trimethyl-2,3-dihydrobenzofuran-5-carboxamide] | 500 to 1000
3 | Cc1cc(C)c(CNC(=O)c2cc3c(c(-c4ccc(N5CCOCC5)nc4)c2)OC(C)C3)c(=O)[nH]1 (stereo not drawn) [Example 33, N-((4,6-Dimethyl-2-oxo-1,2-dihydropyridin-3-yl)methyl)-2-methyl-7-(6-morpholinopyridin-3-yl)-2,3-dihydrobenzofuran-5-carboxamide] | > 1000
4 | COc1ccc(-c2cc(C(=O)NCc3c(C)cc(C)[nH]c3=O)cc3c2OCC3C)cn1 (stereo not drawn) [Example 30, N-((4,6-Dimethyl-2-oxo-1,2-dihydropyridin-3-yl)methyl)-7-(6-methoxypyridin-3-yl)-3-methyl-2,3-dihydrobenzofuran-5-carboxamide] | > 1000
5 | Cc1cc(C)c(CNC(=O)c2cc3c(c(-c4ccc(N5CCNCC5)nc4)c2)OCC3)c(=O)[nH]1 [Example 38, N-((4,6-Dimethyl-2-oxo-1,2-dihydropyridin-3-yl)methyl)-7-(6-(piperazin-1-yl)pyridin-3-yl)-2,3-dihydrobenzofuran-5-carboxamide] | > 1000
6 | CC1=CCOc2c(Br)cc(C(=O)NCc3c(C)cc(C)[nH]c3=O)cc2C1 [Example 44, 9-Bromo-N-((4,6-dimethyl-2-oxo-1,2-dihydropyridin-3-yl)methyl)-4-methyl-2,5-dihydrobenzo[b]oxepine-7-carboxamide] | > 1000
7 | CCC1(C)Cc2cc(C(=O)NCc3c(C)cc(C)[nH]c3=O)cc(-c3ccc(N4CCNCC4)nc3)c2O1 (stereo not drawn) [Example 62, N-((4,6-Dimethyl-2-oxo-1,2-dihydropyridin-3-yl)methyl)-2-ethyl-2-methyl-7-(6-(piperazin-1-yl)pyridin-3-yl)-2,3-dihydrobenzofuran-5-carboxamide] | < 500
8 | Cc1cc(C)c(CNC(=O)c2cc3c(c(-c4ccc(CN5CCCCC5)cc4)c2)OC(C)(C)C3)c(=O)[nH]1 [Example 19, N-((4,6-Dimethyl-2-oxo-1,2-dihydropyridin-3-yl)methyl)-2,2-dimethyl-7-(4-(piperidin-1-ylmethyl)phenyl)-2,3-dihydrobenzofuran-5-carboxamide] | > 1000
9 | Cc1cc(C)c(CNC(=O)c2cc(Br)c3c(c2)CC(C)O3)c(=O)[nH]1 (stereo not drawn) [Example 31, 7-Bromo-N-((4,6-dimethyl-2-oxo-1,2-dihydropyridin-3-yl)methyl)-2-methyl-2,3-dihydrobenzofuran-5-carboxamide] | > 1000
10 | Cc1cc(C)c(CNC(=O)c2cc(Br)c3c(c2)CC(C)(C)O3)c(=O)[nH]1 [Example 1, 7-Bromo-N-((4,6-dimethyl-2-oxo-1,2-dihydropyridin-3-yl)methyl)-2,2-dimethyl-2,3-dihydrobenzofuran-5-carboxamide] | < 500
11 | COc1ccc(-c2cc(C(=O)NCc3c(C)cc(C)[nH]c3=O)cc3c2OC(C)CCC3)cn1 (stereo not drawn) [Example 52, N-((4,6-Dimethyl-2-oxo-1,2-dihydropyridin-3-yl)methyl)-9-(6-methoxypyridin-3-yl)-2-methyl-2,3,4,5-tetrahydrobenzo[b]oxepine-7-carboxamide] | > 1000
12 | COc1ccc(-c2cc(C(=O)NCc3c(C)cc(C)[nH]c3=O)cc3c2O[C@@]2(C)CCC[C@@H]32)cn1 (racemic) [Example 66, rac-(3aS,8bS)—N-((4,6-Dimethyl-2-oxo-1,2-dihydropyridin-3-yl)methyl)-5-(6-methoxypyridin-3-yl)-3a-methyl-2,3,3a,8b-tetrahydro-1H-cyclopenta[b]benzofuran-7-carboxamide] | 500 to 1000
13 | Cc1cc(C)c(CNC(=O)c2ccc3c(c2)CC(C)(C)O3)c(=O)[nH]1 [Example 2, N-((4,6-Dimethyl-2-oxo-1,2-dihydropyridin-3-yl)methyl)-2,2-dimethyl-2,3-dihydrobenzofuran-5-carboxamide] | > 1000
14 | Cc1cc(C)c(CNC(=O)c2cc(Br)c3c(c2)CC2(CCCC2)O3)c(=O)[nH]1 [Example 70, 7-Bromo-N-((4,6-dimethyl-2-oxo-1,2-dihydropyridin-3-yl)methyl)-3H-spiro[benzofuran-2,1′-cyclopentane]-5-carboxamide] | > 1000
15 | CCCc1cc(C)[nH]c(=O)c1CNC(=O)c1cc(Br)c2c(c1)CC(C)(C)O2 [Example 24, 7-Bromo-2,2-dimethyl-N-((6-methyl-2-oxo-4-propyl-1,2-dihydropyridin-3-yl)methyl)-2,3-dihydrobenzofuran-5-carboxamide] | > 1000
16 | Cc1cc(C)c(CNC(=O)c2cc(Br)c3c(c2)[C@@H](C)[C@H](C)O3)c(=O)[nH]1 (racemic) [Example 40, rac-(2S,3R)-7-bromo-N-((4,6-dimethyl-2-oxo-1,2-dihydropyridin-3-yl)methyl)-2,3-dimethyl-2,3-dihydrobenzofuran-5-carboxamide] | > 1000
17 | Cc1cc(C)c(CNC(=O)c2cc3c(c(-c4ccc(CN5CCCCC5)cc4)c2)OC2(CCCC2)C3)c(=O)[nH]1 [Example 74, N-((4,6-Dimethyl-2-oxo-1,2-dihydropyridin-3-yl)methyl)-7-(4-(piperidin-1-ylmethyl)phenyl)-3H-spiro[benzofuran-2,1′-cyclopentane]-5-carboxamide] | > 1000
18 | Cc1cc(C)c(CNC(=O)c2cc3c(c(-c4ccc(N5CCNCC5)nc4)c2)OC(C(C)C)C3)c(=O)[nH]1 (stereo not drawn) [Example 80, N-((4,6-Dimethyl-2-oxo-1,2-dihydropyridin-3-yl)methyl)-2-isopropyl-7-(6-(piperazin-1-yl)pyridin-3-yl)-2,3-dihydrobenzofuran-5-carboxamide] | > 1000
19 | Cc1cc(C)c(CNC(=O)c2cc(Br)c3c(c2)CCC(C)CO3)c(=O)[nH]1 (stereo not drawn) [Example 53, 9-Bromo-N-((4,6-dimethyl-2-oxo-1,2-dihydropyridin-3-yl)methyl)-3-methyl-2,3,4,5-tetrahydrobenzo[b]oxepine-7-carboxamide] | > 1000
20 | Cc1cc(C)c(CNC(=O)c2cc(-c3ccc(N4CCOCC4)nc3)c3c(c2)C(C)CO3)c(=O)[nH]1 (stereo not drawn) [Example 27, N-((4,6-Dimethyl-2-oxo-1,2-dihydropyridin-3-yl)methyl)-3-methyl-7-(6-morpholinopyridin-3-yl)-2,3-dihydrobenzofuran-5-carboxamide] | > 1000
21 | Cc1cc(C)c(CNC(=O)c2cc(-c3ccc(N4CCNCC4)cc3)c3c(c2)[C@@H]2CCC[C@]2(C)O3)c(=O)[nH]1 (racemic) [Example 68, rac-(3aS,8bS)—N-((4,6-Dimethyl-2-oxo-1,2-dihydropyridin-3-yl)methyl)-3a-methyl-5-(4-(piperazin-1-yl)phenyl)-2,3,3a,8b-tetrahydro-1H-cyclopenta[b]benzofuran-7-carboxamide] | 500 to 1000
22 | Cc1cc(C)c(CNC(=O)c2cc3c(c(-c4ccc(CN5CCOCC5)cc4)c2)OC(C)C3)c(=O)[nH]1 (stereo not drawn) [Example 35, N-((4,6-Dimethyl-2-oxo-1,2-dihydropyridin-3-yl)methyl)-2-methyl-7-(4-(morpholinomethyl)phenyl)-2,3-dihydrobenzofuran-5-carboxamide] | > 1000
23 | Cc1cc(C)c(CNC(=O)c2cc(Cl)c3c(c2)CC(C)(C)O3)c(=O)[nH]1 [Example 3, 7-Chloro-N-((4,6-dimethyl-2-oxo-1,2-dihydropyridin-3-yl)methyl)-2,2-dimethyl-2,3-dihydrobenzofuran-5-carboxamide] | > 1000
24 | CCCc1cc(C)[nH]c(=O)c1CNC(=O)c1cc(Br)c2c(c1)CC(C)=C(C)CO2 [Example 86, 9-Bromo-3,4-dimethyl-N-((6-methyl-2-oxo-4-propyl-1,2-dihydropyridin-3-yl)methyl)-2,5-dihydrobenzo[b]oxepine-7-carboxamide] | > 1000
25 | Cc1cc(C)c(CNC(=O)c2cc(Br)c3c(c2)CC(C(C)C)O3)c(=O)[nH]1 (stereo not drawn) [Example 79, 7-Bromo-N-((4,6-dimethyl-2-oxo-1,2-dihydropyridin-3-yl)methyl)-2-isopropyl-2,3-dihydrobenzofuran-5-carboxamide] | > 1000
26 | Cc1cc(C)c(CNC(=O)c2cc3c(c(-c4ccc(N5CCNCC5)nc4)c2)OC(C)C3)c(=O)[nH]1 (stereo not drawn) [Example 34, N-((4,6-Dimethyl-2-oxo-1,2-dihydropyridin-3-yl)methyl)-2-methyl-7-(6-(piperazin-1-yl)pyridin-3-yl)-2,3-dihydrobenzofuran-5-carboxamide] | > 1000
27 | C=CC1(C)Cc2cc(C(=O)NCc3c(C)cc(C)[nH]c3=O)cc(-c3ccc(N4CCNCC4)nc3)c2O1 (stereo not drawn) [Example 59, N-((4,6-Dimethyl-2-oxo-1,2-dihydropyridin-3-yl)methyl)-2-methyl-7-(6-(piperazin-1-yl)pyridin-3-yl)-2-vinyl-2,3-dihydrobenzofuran-5-carboxamide] | < 500
